Laboratory results taken from patent publication US20030228299A1, “Use of antioxidant for treating and/or preventing surface ocular disorders” (priority 2003, published 2003).

Key:
[1] = tested on: corneal and/or conjunctival cells of human origin, in culture; assay: Dichlorofluorescein diacetate (DCFH-DA) test of free radicals (hydrogen peroxide); format: cell-based; details: different concentrations; cells exposed to environmental agents
Experimental: The tests are performed by cytofluorimetric microtitration in cold light. […] It combines the reproducibility of the microplate methods with the sensitivity of the cytometric methods and has a very broad detection spectrum (280-870 nm). The microplate is scanned by a pencil of light of a given wavelength which illuminates each culture well for less than 0.3 second, thereby limiting any probe extinction phenomenon.
Corneal and/or conjunctival cells of human origin, in culture, are exposed to various environmental agents in order to induce the release of free radicals. The active compounds of the invention (Cu/Zn SOD or alpha-lipoic acid) are tested at different concentrations on this model. The presence of free radicals in the culture medium is evaluated by the DCFH-DA test (Molecular Probes, Eugene, Oreg., USA) in fluorimetry (λexc.=490 nm−rem.=535 nm, I=4 V). The fluorogenic probe becomes fluorescent when it binds to hydrogen peroxide. The DCFH-DA solution used is a 20 μM solution in Dulbecco-modified minimum essential medium (DMEM). The cultures are then placed for 20 minutes in DMEM containing the probe, after which they are extracted in order to measure the production of hydrogen peroxide. The measurement is made directly on the cells in 96-well plates (Debbasch C. et al. 2000).

[2] = tested on: corneal and conjunctival cells of human origin, in culture; assay: Hydroethidine test of superoxide anion production; format: cell-based; details: different concentrations; cells exposed to various aggressors
Experimental: Corneal and conjunctival cells of human origin, in culture, exposed to various aggressors in order to induce the release of free radicals, are treated with the active compounds of the present invention (Cu/Zn SOD or alpha-lipoic acid) at different concentrations, or are left untreated.
Hydroethidine (Molecular Probes) is a fluorogenic probe which is oxidized to the ethidium cation in the presence of the superoxide anion. This probe becomes fluorescent when it binds to the superoxide anion (λexc.=490 nm−λem.=600 nm, I=6 V). The hydroethidine solution used is a 5 μM solution. The cell cultures are placed for 10 minutes in DMEM containing the probe, after which the cells are extracted in order to measure the production of superoxide anion. The measurement is made in 96-well microplates.
The analyses are thus performed on 5000 cells per well, each measurement being repeated six times. The results are expressed in fluorescence units. The mean fluorescence values are calculated in each group and compared by a Mann-Whitney non-parametric U-test.

[3] = tested on: continuous-line conjunctival cells (Wong-Kilbourne derivative of Chang conjunctiva, clone 1-5C-4, ATCC CCL-20.2); assay: Apoptosis induced by benzalkonium chloride, percentage of cellular DNA in the sub-G1 phase by flux cytofluorimetry; format: cell-based
Experimental: The apoptosis induced by benzalkonium chloride was chosen as the model of superficial eye disorders treated and/or prevented by the invention.
This study of apoptosis is conducted using flux cytofluorimetry to compare the percentage of DNA in the sub-G1 phase obtained before and after treatment with the compounds of the invention.
In fact, apoptosis is characterized by a fragmentation of the DNA into identical fragments of 200 base pairs. The cells involved in this process therefore have a reduced DNA content.
This fragmentation of the DNA can be measured in situ by flux cytofluorimetry using the DNA stain propidium iodide. The reduced DNA appears with a lower fluorescence intensity than that of normal cells. […] The number of normal cells appears in the G1 peak zone. On the other hand, the cells which have a lower fluorescence intensity, i.e. those whose DNA has been fragmented, appear underneath this G1 peak, i.e. in what is called the sub-G1 peak located in the zone marked M1 in FIG. 1.
Apoptosis was induced by adding 0.001% by volume of benzalkonium chloride (BAC), based on the total volume of the sample, to DMEM (Dulbecco-modified Eagle's medium: reference 21885, Gibco BRL Products; enriched with 10% by volume of fetal calf serum, based on the total volume of the sample, and supplemented with […] of streptomycin and 50 IU/ml of penicillin) in which conjunctival cells are cultivated in 6-well plates.
In practice, the conjunctival cells were cultivated in the culture medium described above and, at 80% confluence, SOD, alpha-lipoic acid and mixtures thereof were added and incubation was carried out for 45 minutes at 37° C. Benzalkonium chloride was then added to each well. After 15 minutes of incubation, the supernatants in each well were collected in 15 ml tubes; the cells were detached by the action of 0.25% trypsin for 5 minutes at 37° C. and added to their respective supernatants. After centrifugation of the tubes, the cells were washed twice in phosphate buffer. The cellular residue was resuspended in phosphate buffer at a concentration of 1 million cells per milliliter.
One hundred microliters of this cellular suspension having a concentration of 10^6/ml were first fixed and permeabilized in one milliliter of absolute ethanol at −20° C. for one hour; then, after washing in phosphate buffer, the DNA was stained with propidium iodide (100 microliters at a concentration of 0.5 mg/ml) for one hour at 4° C. and subsequently analyzed on a cytofluorimeter (Epics XL-MCL, Beckman).
The percentage of sub-G1 peaks, i.e. the percentage of fragmented DNA, and consequently the number of conjunctival cells degraded by apoptosis, was measured.

[4] = after instillation into the eye (De Saint Jean et al. 1999); cited from earlier work

Row | Compound | Deleterious effects of free radicals on corneal and/or conjunctival cells (DCFH-DA test) [1] | Production of superoxide anion and cellular degeneration associated with lipid peroxidation (hydroethidine test) [2] | Percentage of sub-G1 peaks ([3]; alpha-lipoic acid 0.5 μg/ml DMEM + BAC 0.001%) [%] | Percentage of sub-G1 peaks ([3]; alpha-lipoic acid 0.5 μg/ml in DMEM, no BAC (control)) [%] | Percentage of sub-G1 peaks ([3]; alpha-lipoic acid 5 μg/ml DMEM + BAC 0.001%) [%] | Percentage of sub-G1 peaks ([3]; alpha-lipoic acid 5 μg/ml in DMEM, no BAC (control)) [%] | Half-life [4] [h] | Percentage of sub-G1 peaks ([3]; BAC 0.001% alone in DMEM (reference, maximum apoptosis; DMEM control = 10)) [%]
1 | O=C(O)CCCCC1CCSS1 (racemic) [Alpha-lipoic acid, racemic alpha-lipoic acid] | significant dose-related decrease | significant dose-related reduction | 8 | 7 | 13 | 7 | – | –
2 | benzalkonium chloride [BAC] | – | – | – | – | – | – | 20 | 23
